# System: Purified DC
# Test: IL-12 p70 ELISA of culture supernatant of TLR-agonist-stimulated DC
# Format: cell-based, mice
# Settings: 24 hours, IL12 p70 by ELISA, versus media alone
# Protocol: FIGS. 14A-14D. Changes in PD-1 expression following TLR stimulation are mediated by IL-12 secreted from APCs. Panel A: Purified OT-1 T cells (T), B cells (B), or dendritic cells (DC) were activated with SIINFEKL peptide (SEQ ID NO:1, OVA) or with a non-specific peptide (NS) in the presence of either TLR1/2 (TLR1/2) agonist, TLR7 agonist (TLR7), or media alone. After 24 hours, cells were washed and co-cultured with naïve purified OT-1 CD8+ T cells for an additional 24 hours and then assessed for expression of the indicated surface receptors (4-1BB, CD3, PD-1, LAG3, CTLA-4, and TIM3) by flow cytometry. Shown is the MFI for each marker, with samples assessed in triplicate. Panel B: Purified DC were stimulated in the presence of TLR1/2 agonist, TLR7 agonist, or media alone. After 24 hours, media was collected and used for culture of purified OT-1 CD8+ T cells with naïve DC in the presence of SIINFEKL peptide (SEQ ID NO:1, OVA) or non-specific (NS) peptide. After 24 hours, cells were assessed for expression of the indicated surface receptors (4-1BB, PD-1, LAG3, and CTLA-4) by flow cytometry. Shown is mean and standard error of the MFI for each marker, with samples assessed in triplicate. Panel C: Purified DC were stimulated in the presence of TLR1/2 agonist (Pam3), TLR3 agonist (PolyIC), TLR4 agonist (MPLA), TLR7/8 agonists (Gard, R848), TLR9 agonist (ODN), or media only (none) for 24 hours. Culture supernatant was then evaluated for the presence of IL12 p70 by ELISA. Asterisks indicate significant (p<0.05) IL-12 release compared to media alone. Panel D: Purified DC were stimulated in the presence of TLR1/2 agonist, TLR7 agonist, or media alone. After 24 hours, medium was collected and used for culture of purified OT-1 CD8+ T cells with naïve DC in the presence of SIINFEKL peptide (SEQ ID NO:1, OVA) and, where indicated, 0.1 ng/ml IL-12 or 0.12 μg/mL anti-IL-12 antibody. After 24 hours, cells were assessed for expression of the indicated surface receptors (4-1BB, PD-1, LAG3, and CTLA-4) by flow cytometry. Shown is mean and standard error of the MFI for each marker, with samples assessed in triplicate and are representative of two similar experiments. Asterisks indicate P<0.01.
# Changes in PD-1 expression following TLR stimulation are mediated by IL-12 secreted from APCs: TLR are expressed by both T cells and professional APC. To determine if the effects on T-cell checkpoint expression were mediated by direct effects of TLR ligands on T cells or APC, purified OT-1 T cells were activated with SIINFEKL peptide (SEQ ID NO:1) alone or in the presence of TLR1/2 or TLR7 agonist, or with purified DC or B cells pre-treated with TLR agonists. After 24 hours cells were evaluated for expression of 4-1BB, CD3, PD-1, LAG-3, CTLA-4, and TIM-3. […]
row,Compound,secretion of IL-12 by DC
1,Poly(I:C) [PolyI:C],No significant secretion
2,Pam3CSK4,greatest secretion
3,CCNCc1nc2c(N)nc3ccccc3c2n1CC(C)(C)O [Gardiquimod],greatest secretion
4,Monophosphoryl Lipid A [MPLAs],No significant secretion

# From US20240390487A1, “TLR AGONISTS FOR REDUCING ACTIVATION-INDUCED PD-1 EXPRESSION ON T CELLS AND METHODS OF USE” (WISCONSIN ALUMNI RESEARCH FOUNDATION, priority 2016, published 2024)
